Results taken from patent US20220016101A1 (ACADIA Pharmaceuticals Inc., priority 2018, published 2022).

Test system: patients with MDD and an inadequate response to an SSRI or SNRI
Assay: Massachusetts General Hospital Sexual Functioning Index (MGH-SFI), Study ACP-103-042
Assay type: in vivo, human
Description: “Massachusetts General Hospital Sexual Functioning Index (MGH-SFI)” is described, for instance, in Labbate and Lare, 2001, Psychother Psychosom. 70(4):221-225. This is a patient facing questionnaire that quantifies sexual dysfunction into 5 functional domains (“interest in sex,” “sexual arousal,” “ability to achieve orgasm,” “ability to maintain erection” (males only), and “sexual satisfaction”). Patients rate each item using a 6-point scale ranging from 1 (good function) to 6 (poor function). High scores indicate poor sexual functioning. […] The determination of the subject's status and eligibility for randomization in Stage 2 was made in a double-blind manner. […] Sexual functioning was assessed using the Massachusetts General Hospital Sexual Functioning Index or MGH-SFI (Labbate and Lare, 2001, Psychother Psychosom. 70(4):221-225). This is a patient facing questionnaire that quantifies sexual dysfunction into 5 functional domains (“interest in sex,” “sexual arousal,” “ability to achieve orgasm,” “ability to maintain erection” [malesonly], and “sexual satisfaction”). Patients rate each item using a 6-point scale ranging from 1 (good function) to 6 (poor function). The time frame for this scale is the past month. This scale was administered at baseline and Week 5 in both stages of the study. High scores indicate poor sexual functioning. In ACP-103-042 the mean scores for MGH-SFI at Baseline was calculated over all 5 domains for males and the 4 domains for females. For MGH-SFI (follow-up version) at Study Weeks 5 and 10, the mean was calculated in the same way as MGH-SFI at Baseline. […] Tables 10-27 summarize the detailed data of MGH-SFI individual items of the overall study group (Tables 10-15), the subgroup of age of <=50 (Tables 16-21) and the subgroup of age of >50 (Table 21-26). In Tables 9-26, ANCOVA=analysis of covariance; OC=observed cases; LSM=least squares mean; CI=confidence interval; SD=standard deviation; SE=standard error. Stage 1: Baseline=Study Week 0, Week 5=Study Week 5; Stage 2: Baseline=Study Week 5, Week 5=Study Weeks 10. LSM from the stage-specific ANCOVA analysis with the change from baseline as the outcome, treatment group as a factor, and the corresponding Baseline value as a covariate. 2-sided p-value for treatment difference from the stage-specific ANCOVA analysis. An treatment effect size (Cohen's d) is calculated using the formula: Effect Size=Least Square mean difference between PIM and PBO/SD. The corresponding 95% confidence interval for an effect size is calculated based on the theoretical probability distribution of the effect size. […] Tables 10-15 and 28-38 summarize the detailed data of MGH-SFI individual items of the overall study group (Tables 10-15), the female subgroup (Tables 33-37) and the male subgroup (Table 38-43). An treatment effect size (Cohen's d) is calculated using the formula: Effect Size=Least Square mean difference between PIM and PBO/SD. The corresponding 95% confidence interval for an effect size is calculated based on the theoretical probability distribution of the effect size. In Tables 10-15 and 28-38, ANCOVA=analysis of covariance; OC=observed cases; LSM=least squares mean; CI=confidence interval; SD=standard deviation; SE=standard error. Stage 1: Baseline=Study Week 0, Week 5=Study Week 5; Stage 2: Baseline=Study Week 5, Week 5=Study Weeks 10. LSM from the stage-specific ANCOVA analysis with the change from baseline as the outcome, treatment group as a factor, and the corresponding Baseline value as a covariate. 2-sided p-value for treatment difference from the stage-specific ANCOVA analysis. An treatment effect size (Cohen's d) is calculated using the formula: Effect Size=Least Square mean difference between PIM and PBO/SD. The corresponding 95% confidence interval for an effect size is calculated based on the theoretical probability distribution of the effect size.

[1] = male subgroup, Stage 2, PIM 34 mg
[2] = male subgroup, Stage 2, PIM 34 mg vs placebo, change from baseline to Week 5
[3] = male subgroup, Stage 2, PIM 34 mg, Week 5
[4] = subgroup <=50 years old, Stage 1, PIM 34 mg

Structure (SMILES): CC(C)COc1ccc(CNC(=O)N(Cc2ccc(F)cc2)C2CCN(C)CC2)cc1 [pimavanserin, N-(4-Fluorophenylmethyl)-N-(1-methylpiperidin-4-yl)-N′-(4-(2-methylpropyloxy)phenylmethyl)carbamide]
- MGH-SFI Item 02: Ability to Get Sexually Aroused or Excited, Change from Baseline to Week 5, Median [1]: −1.0
- MGH-SFI Item 03: Ability to Achieve Orgasm, Change from Baseline to Week 5, Mean (SE) [1]: −0.8 (0.36)
- MGH-SFI Item 03: Ability to Achieve Orgasm, Change from Baseline to Week 5, Median [1]: 0.0
- MGH-SFI Item 04: (Men) Ability to Get and Maintain an Erection, Change from Baseline to Week 5, Mean (SE) [1]: −1.0 (0.41)
- MGH-SFI Item 04: (Men) Ability to Get and Maintain an Erection, Change from Baseline to Week 5, Median [1]: −1.0
- MGH-SFI Item 05: Overall Sexual Satisfaction, Change from Baseline to Week 5, Mean (SE) [1]: −1.4 (0.50)
- MGH-SFI Item 05: Overall Sexual Satisfaction, Change from Baseline to Week 5, Median [1]: −1.0
- MGH-SFI Item 06: Overall Improvement Since Last Medication Change, Effect Size (Cohen's d) (male subgroup, Stage 2, PIM 34 mg vs placebo, Week 5): 0.405
- MGH-SFI Item 02: Ability to Get Sexually Aroused or Excited, Effect Size (Cohen's d) [2]: −0.154
- MGH-SFI Item 03: Ability to Achieve Orgasm, Effect Size (Cohen's d) [2]: 0.497
- MGH-SFI Item 04: (Men) Ability to Get and Maintain an Erection, Effect Size (Cohen's d) [2]: 0.701
- MGH-SFI Item 05: Overall Sexual Satisfaction, Effect Size (Cohen's d) [2]: 0.511
- MGH-SFI Item 02: Ability to Get Sexually Aroused or Excited, Week 5, Mean (SE) [3]: 3.6 (0.47)
- MGH-SFI Item 02: Ability to Get Sexually Aroused or Excited, Week 5, Median [3]: 4.0
- MGH-SFI Item 03: Ability to Achieve Orgasm, Week 5, Mean (SE) [3]: 3.6 (0.56)
- MGH-SFI Item 03: Ability to Achieve Orgasm, Week 5, Median [3]: 4.0
- MGH-SFI Item 04: (Men) Ability to Get and Maintain an Erection, Week 5, Mean (SE) [3]: 3.1 (0.54)
- MGH-SFI Item 04: (Men) Ability to Get and Maintain an Erection, Week 5, Median [3]: 4.0
- MGH-SFI Item 05: Overall Sexual Satisfaction, Week 5, Mean (SE) [3]: 3.0 (0.53)
- MGH-SFI Item 05: Overall Sexual Satisfaction, Week 5, Median [3]: 3.0
- MGH-SFI Item 06: Overall Improvement Since Last Medication Change, Week 5, Mean (SE) [3]: 3.7 (0.53)
- MGH-SFI Item 06: Overall Improvement Since Last Medication Change, Week 5, Median [3]: 4.0
- MGH-SFI 01: Interest in Sex, Effect Size (Cohen's d) (male subgroup, Stage 2, positive = pimavanserin better than placebo): 0.174
- MGH-SFI Items 1, 2, 3, and 5 mean change from baseline to Week 5 vs placebo (overall study group): significantly greater
- MGH-SFI 04: (Men) Ability to Get and Maintain an Erection, Change from Baseline to Week 5 Mean (SE) [4]: −1.7 (1.45)
- MGH-SFI 04: (Men) Ability to Get and Maintain an Erection, Change from Baseline to Week 5 Median [4]: −2.0
- MGH-SFI 04: (Men) Ability to Get and Maintain an Erection, Week 5 Mean (SE) [4]: 2.3 (0.67)
- MGH-SFI 04: (Men) Ability to Get and Maintain an Erection, Week 5 Median [4]: 3.0
- MGH-SFI 05: Overall Sexual Satisfaction, Change from Baseline to Week 5 Mean (SE) [4]: −0.5 (0.35)
- MGH-SFI 05: Overall Sexual Satisfaction, Change from Baseline to Week 5 Median [4]: 0.0
- MGH-SFI 05: Overall Sexual Satisfaction, Week 5 Mean (SE) [4]: 3.6 (0.43)
- MGH-SFI 05: Overall Sexual Satisfaction, Week 5 Median [4]: 4.0
- MGH-SFI 06: Overall Improvement Since Last Medication Change, Week 5 Mean (SE) [4]: 3.0 (0.24)
- MGH-SFI 06: Overall Improvement Since Last Medication Change, Week 5 Median [4]: 3.0
- MGH-SFI 04: (Men) Ability to Get and Maintain an Erection, Effect Size (Cohen's d) (subgroup <=50 years old, Stage 1, PIM 34 mg vs placebo): 0.877
